Measurements: article PMC11462456 (Chemical Science, 2024)

Tests used:
A549 xenograft = A549 xenograft mouse model, tumor growth; assay type: in vivo; details: i.p.
Procedure: 4.7 Therapeutic anti-tumor evaluation
Animal experiments were carried out in accordance with the regulatory guidelines of the Ethics Committee of the Ghent University Hospital. 30 female Swiss Nude Immunodeficient mice (Crl:NU(Ico)-Foxn1nu) of 5 weeks-6 weeks old (Charles River) were subcutaneously injected with […] A549 (1:1 serum free DMEM medium: Matrigel (Corning)). 10 days post inoculation ,mice were randomized into five groups (6 mice/group) with equal average tumor volume and treatment was started: (1) the control group: Vehicle(20% PEG400 and 5% […]
2J2V group (0.1 mg/kg), (5) the 2J2V group(0.5 mg/kg).Mice were treated on Day 0, Day 2, Day 4, Day 11, Day 18 by intraperitoneal injection. Tumor growth was monitored every 3 days by caliper, and the tumor volume was calculated as 1/2 × length × width2. Body weight was monitored every 3 days by weighing scale. […]
The reduced […]
proteins were alkylated with 40 mM iodoacetamide (IAA) in the dark for 30 minutes. Then samples were acidified with 1.2% aqueous phosphoric acid and mixed with 6× volumes of 90% methanol, 100 mM TEAB, pH 7.1 (S-Trap binding buffer). The samples were loaded onto the (1 picture or pasted object on this page, not shown here)

[1] = Mouse serum stability by HPLC-MS/MS; assay type: in vitro ADME; details: after 2 hours of incubation, 37°C
Procedure: Figure S7. Dual-ligand PROTACs inhibit cancer cell growth in 2D and 3D in vitro cell cultures.
(A) 2D-cultured SKOV-3 were treated with an escalating dose of PROTACs for 48h. Cell viability was assessed by CellTiter-Glo 2D assay. EC50 values were calculated from fitted curves. (B) HCT116 spheroids were treated with an escalating dose of PROTACs for 72h (equivalent volume of DMSO as control group). Representative transmitted microscopy images at the dose of 10nM. (C) Cell viability was assessed by Cell Titer-Glo 3D assay. Both experiments were performed as three independent replicates. (D) 2D-cultured A549 cells were treated with an escalating dose of PROTACs equipped with similar linker length as dual-ligand PROTACs. Cell viability was assessed by CellTiter-Glo 2D assay.
EC50 values were calculated from fitted curves.
Eurofins Panlabs, 6 Research Park Dr. St. Charles, MO 63304, U.S.A. Compounds were incubated in the mouse serum at 37°C for certain time, and at 0, 0.5, 1, 1.5, 2 hours post incubation, the mouse serum was analyzed by HPLC-MS/MS according to the reference: Di, L. et al. (2005), Int. J. Pharm., 297 (1-2): 110-119. […] Samples were analyzed by HPLC-MS/MS and peak areas were recorded for each analyte. The area of precursor compound remaining after each of the time points relative to the amount remaining at time zero, expressed as percent, is calculated. […]

BRD2, BRD3 and BRD4 = test: Mass spectrometry proteomics in A549 cells; assay type: cell-based, human; details: 10 nM, 4 hours, 7592 proteins quantified
Procedure: A549 cells in DMEM medium were seeded at 1×10^6 cells on a 6-well plate 24 h before […]
volume of DMSO. After 4 h, the cells were digested by trypsin, centrifuged at 250g for 5min and washed three times with PBS. Cells were resuspended in lysis buffer (50 mM triethylammonium bicarbonate (TEAB), 5% SDS (pH 7.5)), then sonicated, and clarified with centrifugation of 13,000g for 8 minutes. Each sample was reduced with 20 mM DTT, then warmed the solution first at 95 °C for 10 minutes and then at 60 °C for 1 hour. The reduced proteins were alkylated with 40 mM iodoacetamide (IAA) in the dark for 30 minutes. Then samples were acidified with 1.2% aqueous phosphoric acid and mixed with 6× volumes of 90% methanol, 100 mM TEAB, pH 7.1 (S-Trap binding buffer). The samples were loaded onto the (1 picture or pasted object on this page, not shown here)

Compound | anti-tumor activity (A549 xenograft; 0.5 and 0.1 mg kg−1, Swiss nude mice) | compound remained intact in mouse serum [1] | BET protein abundance change in proteome (BRD2, BRD3 and BRD4) | tumor growth (A549 xenograft; higher dose of 0.5 mg kg−1, Swiss nude mice)
Cc1ncsc1-c1ccc(CNC(=O)C2CC(O)CN2C(=O)C(NC(=O)COCCOCCOCCNC(=O)CC2N=C(c3ccc(Cl)cc3)c3c(sc(C)c3C)-n3c(C)nnc32)C(C)(C)C)cc1 (stereo not drawn) [MZ1, reference compound] | did not exhibit significant anti-tumor activity | 95% | much lower change in BET protein abundance | –
Cc1ncsc1-c1ccc(C(C)NC(=O)C2CC(O)CN2C(=O)C(NC(=O)COCCOCCNC(=O)CC(NC(=O)CCc2cn(CCOCCOCCOCCOCC(=O)NC(CC(=O)NCCOCCOCCNC(=O)CC3N=C(c4ccc(Cl)cc4)c4c(sc(C)c4C)-n4c(C)nnc43)C(=O)NCCOCCOCCNC(=O)CC3N=C(c4ccc(Cl)cc4)c4c(sc(C)c4C)-n4c(C)nnc43)nn2)C(=O)NCCOCCOCC(=O)NC(C(=O)N2CC(O)CC2C(=O)NC(C)c2ccc(-c3scnc3C)cc2)C(C)(C)C)C(C)(C)C)cc1 (stereo not drawn) [2J2V] | – | 88% | top proteins being degraded the most | potent reduction in tumor growth
